Experiments:
[1] = test system: naïve rats; test: Water-maze learning, naïve rats; format: in vivo, Sprague-Dawley rats; conditions: 5 mg/kg/d i.p.
Experimental: SAHA was supplied by NatureWise Biotech and Medicals Corporation (Taipei, Taiwan). […] (St. Louis, MO, USA). The BMX and SAHA stock (100 mg/mL) was dissolved in DMSO and diluted with saline to a final concentration of 0.5 mg/mL (in 0.5% DMSO/saline). […] SD rats were randomly divided into 3 groups. For the naïve animal experiments, the BMX-injected or SAHA-injected groups were injected with BMX (5 mg/kg/d) or SAHA (5 mg/kg/d) intraperitoneally 7 d prior to behavioral experiments and during the experimentation. The control group received the 0.5% DMSO/saline injection. The injection volume was 10 μL/g of body weight. The injections were performed once per day. For the amnesia experiment, the protocol was adopted from previous studies with modifications. […] The control group received the 0.5% DMSO/saline injection. The injection volume was 10 μL/g of body weight. […] The method was adopted from that of a previous study with modifications. A plastic circular pool 2.0 m in diameter and 0.6 m in height was filled with water (25 ± 2°C) to a depth of 20 cm. A circular platform (8 cm in diameter) was placed at a specific location from the edge of the pool and submerged 2-3 cm below the water surface. Water was made cloudy by adding toxic-free dye. Distinctive visual cues were set on the wall. For spatial learning, animals were subjected to 3 trials per day, with one trial early in the morning, one trial at noon, and another in the late afternoon. The training procedure lasted 4 days, and a total of 12 trials were given. This procedure was adopted because spaced training is a better paradigm to facilitate memory consolidation. For these trials, the rats were positioned at different starting points spaced equally around the perimeter of the pool in random order. They had 120 s to find the hidden platform. […] The time each animal took to reach the platform was recorded as the escape latency. […] The rats were placed in the pool with the platform removed, and the time they spent in each quadrant (Quadrants 1, 2, 3, and 4) was recorded. […]

[2] = test system: naïve rats; test: Passive one-way inhibitory avoidance learning, naïve rats; format: in vivo, Sprague-Dawley rats; conditions: 5 mg/kg/d i.p., 1 day and 7 days after footshock
Experimental: SAHA was supplied by NatureWise Biotech and Medicals Corporation (Taipei, Taiwan). […] (St. Louis, MO, USA). The BMX and SAHA stock (100 mg/mL) was dissolved in DMSO and diluted with saline to a final concentration of 0.5 mg/mL (in 0.5% DMSO/saline). […] SD rats were randomly divided into 3 groups. For the naïve animal experiments, the BMX-injected or SAHA-injected groups were injected with BMX (5 mg/kg/d) or SAHA (5 mg/kg/d) intraperitoneally 7 d prior to behavioral experiments and during the experimentation. The control group received the 0.5% DMSO/saline injection. The injection volume was 10 μL/g of body weight. The injections were performed once per day. For the amnesia experiment, the protocol was adopted from previous studies with modifications. […] The control group received the 0.5% DMSO/saline injection. The injection volume was 10 μL/g of body weight. […] The apparatus consisted of a trough-shaped alley divided by a sliding door that separates an illuminated safety compartment and a dark compartment. A shock generator that produced current was connected to the floor of the dark compartment (UGO Basile, Comerio (VA), Italy). The method used was adopted from that of previous studies with modifications. The behavioral task, including the training and testing procedures, was recorded between 8:00 AM and 6:00 PM. […]

Structure (SMILES): O=C(CCCCCCC(=O)Nc1ccccc1)NO [SAHA, suberoylanilide hydroxamic acid, reference compound]
- escape latency in finding the hidden platform [1]: shortened escape latency
- visual discrimination ability, motor coordination, and motivational state (swimming speed, visible platform learning) [1]: Neither BMX nor SAHA affects
- probe trial, time spent in target quadrant ([1]; day 5): showed no difference compared with the control group
- retention time in the illuminated chamber [2]: No difference in retention performance
